Data as given in patent US20070196510A1, “Method for treating resistant hypertension” (priority 2006, published 2007).
“Also recorded” adds a separate entry of the source.

Tests used:
[1] = test system: patients with resistant hypertension; assay: Same clinical study: urinary albumin to creatinine ratio; assay type: in vivo, human
Description: Co-primary efficacy endpoints were the changes from baseline through weeks 8 and 10 (i.e., doses of 150 and 300 mg) in trough sitting SBP. Blood pressure was measured at every study visit (baseline and weeks 2, 4, 6, 8 and 10) using standard sphygmomanometry. Secondary variables included 24-hour SBP as measured by ambulatory blood pressure monitoring (ABPM), percentage of patients who achieved SBP goal, trough sitting DBP, and urinary albumin to creatinine ratio. Ambulatory blood pressure monitoring was recorded once before randomization and repeated during the 24 hours immediately preceding the week 10 study visit. Urine samples for determination of albumin to creatinine ratio were collected at screening, baseline and week 10.

[2] = test system: patients with moderate hypertension; settings: 10 to 100 mg/day, no other antihypertensive drugs; cited from earlier work
[3] = test system: patients with resistant hypertension; assay: Same clinical study: safety and tolerability assessments; assay type: in vivo, human
Description: Physical examinations, vital sign measurements, clinical chemistry and hematologic laboratory tests, and electrocardiography were performed at the screening visit and periodically throughout the study. Blood samples were obtained at baseline and at weeks 4 and 10 during study drug treatment to monitor liver function. Additional blood samples were drawn from male patients at baseline and week 10 to assess follicle stimulating hormone, inhibin B, luteinizing hormone and testosterone levels. Male fertility was assessed by analysis of semen samples obtained within 2 weeks before baseline and within 2 weeks before week 10. Adverse events were monitored throughout the study.
A nonlinear mixed effect model was used for the analysis of change in blood pressure, with comorbidity status as a covariate. This model used all observed blood pressure measurements with no imputation for missing values. Linear contrast statements were used to test the slope through a given time point to test the effect of the dose administered on that week. Estimates of treatment effect were obtained via least square means. Response rates were compared with logistic regression models at each blood pressure measurement with comorbidity status as a covariate; missing values were imputed with last observation carried forward for these models. Safety summaries include all patients who received ≧1 dose of blinded study medication.

In the case of `COc1cc(OC)nc(O[C@H](C(=O)O)C(OC)(c2ccccc2)c2ccccc2)n1` [Darusentan, (+)-(S)-2-[(4,6-dimethoxy-2-pyrimidinyl)oxy]-3-methoxy-3,3-diphenylpropionic acid], the “geometric mean albumin to creatinine ratio at week 10” value ([1]; all observed patients, n 65, baseline 12.6) is reported as 9.4 mg/g, the “decrease from baseline in geometric mean urinary albumin to creatinine ratio” value ([1]; all observed patients, placebo increased 6.2%) is reported as 25.3% and the “geometric mean albumin to creatinine ratio at week 10” value ([1]; baseline ratio >30 mg/g, n 12, baseline 145.4) is reported as 73.6 mg/g. For the same compound, the “geometric mean albumin to creatinine ratio at week 10” value ([1]; baseline ratio ≦30 mg/g, n 53, baseline 7.2) was 5.9 mg/g, the “albumin to creatinine ratio, % change from baseline, mean (SE)” value ([1]; week 10, all observed patients, n 65) was −25.3 (8.9) % and the “albumin to creatinine ratio, % change from baseline, mean (SE)” value ([1]; week 10, baseline ratio >30 mg/g, n 12) was −49.4 (23.6) %. The “albumin to creatinine ratio, % change from baseline, mean (SE)” value ([1]; week 10, baseline ratio ≦30 mg/g, n 53) was −18.4 (8.3) %, the “effect on SBP and DBP by comparison with placebo” value [2] was “significantly reduce SBP and DBP” and the overall tolerability ([3]; 10 to 300 mg once daily for 10 weeks, add-on therapy) was “generally safe and well tolerated”. For the same compound, the “decreases in hematocrit reported as adverse events” value ([3]; all events mild) was 2 patients, the “decreases in hemoglobin reported as adverse events” value ([3]; all events mild) was 2 patients and the “mean concentrations of ALT, AST, and γ-glutamyltransferase” value ([3]; both groups) was “decreased slightly from baseline”. The “number of serious adverse events reported” value ([3]; darusentan group, n = 76) was “Five”, the “patients reporting serious adverse events” value ([3]; darusentan group, n = 76) was 4 patients and the “patients who discontinued the study because of an adverse event” value ([3]; darusentan group, n = 76) was 4 patients. For the same compound, the “cases of severe edema reported” value ([3]; human, in vivo) was “one”, the “deaths during the course of the study” value ([3]; human, in vivo) was “No patients died” and the “effects on heart rate or liver enzyme levels” value ([3]; human, in vivo) was “no clinically relevant effects”. For the same compound, the “intensity of peripheral edema” value ([3]; human, in vivo) was “largely mild to moderate”, the “patients able to successfully escalate study medication dose to 300 mg/day” value ([3]; human, in vivo) was 78% and the “patients with elevations in ALT or AST >2×ULN” value ([3]; human, in vivo) was “no patients; also recorded: no drug-related serious adverse events or elevations in serum aminotransferase concentrations>2×ULN”. The “relation of serious adverse events to study medication” value ([3]; human, in vivo) was “None of these events were considered to be related to study medication; also recorded: no drug-related serious adverse events”, the “Treatment-emergent adverse event: Arthralgia, patients %” value ([3]; n = 76) was 3% and the “Treatment-emergent adverse event: Arthralgia, patients n” value ([3]; n = 76) was 2. The “Treatment-emergent adverse event: Arthritis, patients n” value ([3]; n = 76) was 0, the “Treatment-emergent adverse event: Diarrhea, patients %” value ([3]; n = 76) was 1 (1) % and the “Treatment-emergent adverse event: Diarrhea, patients n” value ([3]; n = 76) was 1 (1). The “Treatment-emergent adverse event: Dizziness, patients %” value ([3]; n = 76) was 7%, the “Treatment-emergent adverse event: Dizziness, patients n” value ([3]; n = 76) was 5 and the “Treatment-emergent adverse event: Gastroenteritis, patients %” value ([3]; n = 76) was 5%. For the same compound, the “Treatment-emergent adverse event: Gastroenteritis, patients n” value ([3]; n = 76) was 4, the “Treatment-emergent adverse event: Headache, patients %” value ([3]; n = 76) was 11% and the “Treatment-emergent adverse event: Headache, patients n” value ([3]; n = 76) was 8. The “Treatment-emergent adverse event: Nasopharyngitis, patients %” value ([3]; n = 76) was 7%, the “Treatment-emergent adverse event: Nasopharyngitis, patients n” value ([3]; n = 76) was 5 and the “Treatment-emergent adverse event: Peripheral edema, patients %” value ([3]; n = 76) was 17%. The “Treatment-emergent adverse event: Peripheral edema, patients n” value ([3]; n = 76) was 13, the “Treatment-emergent adverse event: Sinusitis, patients %” value ([3]; n = 76) was 8% and the “Treatment-emergent adverse event: Sinusitis, patients n” value ([3]; n = 76) was 6. For the same compound, the “Treatment-emergent adverse event: Upper respiratory tract infection, patients %” value ([3]; n = 76) was 5%, the “Treatment-emergent adverse event: Upper respiratory tract infection, patients n” value ([3]; n = 76) was 4 and the “liver function test results” value ([3]; vs placebo) was “comparable between treatment groups”. For the same compound, the “heart rate, change from baseline” value ([3]; week 10, placebo 2.3±1.3) was 0.4±0.9 beats per minute.
